Laboratory results: patent US8530493B2, “Indolopyridines as Eg5 kinesin modulators” (4SC AG, priority 2006, dated 2013)

What follows are compounds tested on RKO p21 uninduced (proliferating) colon adenocarcinoma cells (assay: Alamar Blue cell viability assay, RKO p21 uninduced (proliferating)). Conditions: Homo sapiens, Table B3, anti-proliferative/cytotoxic activity, 72 hours, read-out: −log EC50 RKO p21 uninduced (proliferating) (converted).
Type: cell-based
Outline: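 RKO p21 or p27 subclones grown without Ponasterone A, i.e. proliferating, exposed 24 h after seeding to semi-log compound dilutions in DMEM/10% FCS (1% DMSO controls) for 72 h at 37° C. Alamar Blue fluorescence (544/590 nm) read relative to untreated cells; EC50 from dose-response curves, given as −log EC50 (mol/l).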

Row | Compound | EC50 [nM]
1 | COc1cc2c3c([nH]c2cc1F)[C@@H](c1cccc(O)c1)N1C(=O)N(CCN2CCCC2)C(=O)[C@]1(C)C3 (racemic) [Example 261, (3aSR,10RS)-7-Fluoro-10-(3-hydroxy-phenyl)-6-methoxy-3a-methyl-2-(2-pyrrolidin-1-yl-ethyl)-3a,4,9,10-tetrahydro-2,9,10a-triaza-cyclopenta[b]fluorene-1,3-dione] | 39.8 to 251
2 | COc1cc2c3c([nH]c2cc1F)[C@@H](c1cccc(O)c1)N1C(=O)N(CCN2CC=CC2)C(=O)[C@]1(C)C3 (racemic) [Example 262, (3aSR,10RS)-2-[2-(2,5-Dihydro-pyrrol-1-yl)-ethyl]-7-fluoro-10-(3-hydroxy-phenyl)-6-methoxy-3a-methyl-3a,4,9,10-tetrahydro-2,9,10a-triaza-cyclopenta[b]fluorene-1,3-dione] | 39.8 to 251
3 | COc1cc2c3c([nH]c2cc1F)[C@@H](c1cccc(O)c1)N1C(=O)N(CCN2CCCCC2)C(=O)[C@]1(C)C3 (racemic) [Example 263, (3aSR,10RS)-7-Fluoro-10-(3-hydroxy-phenyl)-6-methoxy-3a-methyl-2-(2-piperidin-1-yl-ethyl)-3a,4,9,10-tetrahydro-2,9,10a-triaza-cyclopenta[b]fluorene-1,3-dione] | 39.8 to 251
4 | COc1cc2c3c([nH]c2cc1F)[C@@H](c1cccc(O)c1)N1C(=O)N(CCN2CCC(C)CC2)C(=O)[C@]1(C)C3 (racemic) [Example 264, (3aSR,10RS)-7-Fluoro-10-(3-hydroxy-phenyl)-6-methoxy-3a-methyl-2-[2-(4-methyl-piperidin-1-yl)-ethyl]-3a,4,9,10-tetrahydro-2,9,10a-triaza-cyclopenta[b]fluorene-1,3-dione] | 39.8 to 251
5 | COc1cc2c3c([nH]c2cc1F)[C@@H](c1cccc(O)c1)N1C(=O)N(CCN2CC=CCC2)C(=O)[C@]1(C)C3 (racemic) [Example 265, (3aSR,10RS)-2-[2-(3,6-Dihydro-2H-pyridin-1-yl)-ethyl]-7-fluoro-10-(3-hydroxy-phenyl)-6-methoxy-3a-methyl-3a,4,9,10-tetrahydro-2,9,10a-triaza-cyclopenta[b]fluorene-1,3-dione] | 39.8 to 251
6 | COc1cc2c3c([nH]c2cc1F)[C@@H](c1cccc(O)c1)N1C(=O)N(CCN2CCN(C)CC2)C(=O)[C@]1(C)C3 (racemic) [Example 266, (3aSR,10RS)-7-Fluoro-10-(3-hydroxy-phenyl)-6-methoxy-3a-methyl-2-[2-(4-methyl-piperazin-1-yl)-ethyl]-3a,4,9,10-tetrahydro-2,9,10a-triaza-cyclopenta[b]fluorene-1,3-dione] | 39.8 to 251
7 | CC(C)NCCN1C(=O)N2[C@H](c3cccc(O)c3)c3[nH]c4ccc(OC(F)F)cc4c3C[C@@]2(C)C1=O (racemic) [Example 268, (3aSR,10RS)-6-(1,1-Difluoro-methoxy)-10-(3-hydroxy-phenyl)-2-(2-isopropylamino-ethyl)-3a-methyl-3a,4,9,10-tetrahydro-2,9,10a-triaza-cyclopenta[b]fluorene-1,3-dione] | ≤ 39.8
8 | CC(C)CNCCN1C(=O)N2[C@H](c3cccc(O)c3)c3[nH]c4ccc(OC(F)F)cc4c3C[C@@]2(C)C1=O (racemic) [Example 269, (3aSR,10RS)-6-(1,1-Difluoro-methoxy)-10-(3-hydroxy-phenyl)-2-(2-isobutylamino-ethyl)-3a-methyl-3a,4,9,10-tetrahydro-2,9,10a-triaza-cyclopenta[b]fluorene-1,3-dione] | ≤ 39.8
9 | C[C@@]12Cc3c([nH]c4ccc(OC(F)F)cc34)[C@@H](c3cccc(O)c3)N1C(=O)N(CCNCC1CC1)C2=O (racemic) [Example 270, (3aSR,10RS)-2-[2-(Cyclopropylmethyl-amino)-ethyl]-6-(1,1-difluoro-methoxy)-10-(3-hydroxy-phenyl)-3a-methyl-3a,4,9,10-tetrahydro-2,9,10a-triaza-cyclopenta[b]fluorene-1,3-dione] | ≤ 39.8
10 | COCCNCCN1C(=O)N2[C@H](c3cccc(O)c3)c3[nH]c4ccc(OC(F)F)cc4c3C[C@@]2(C)C1=O (racemic) [Example 271, (3aSR,10RS)-6-(1,1-Difluoro-methoxy)-10-(3-hydroxy-phenyl)-2-[2-(2-methoxy-ethylamino)-ethyl]-3a-methyl-3a,4,9,10-tetrahydro-2,9,10a-triaza-cyclopenta[b]fluorene-1,3-dione] | ≤ 39.8
11 | C[C@@]12Cc3c([nH]c4ccc(OC(F)F)cc34)[C@@H](c3cccc(O)c3)N1C(=O)N(CCNC1CCC1)C2=O (racemic) [Example 272, (3aSR,10RS)-2-(2-Cyclobutylamino-ethyl)-6-(1,1-difluoro-methoxy)-10-(3-hydroxy-phenyl)-3a-methyl-3a,4,9,10-tetrahydro-2,9,10a-triaza-cyclopenta[b]fluorene-1,3-dione] | ≤ 39.8
12 | CC(C)(C)NCCN1C(=O)N2[C@H](c3cccc(O)c3)c3[nH]c4ccc(OC(F)F)cc4c3C[C@@]2(C)C1=O (racemic) [Example 273, (3aSR,10RS)-2-(2-tert-Butylamino-ethyl)-6-(1,1-difluoro-methoxy)-10-(3-hydroxy-phenyl)-3a-methyl-3a,4,9,10-tetrahydro-2,9,10a-triaza-cyclopenta[b]fluorene-1,3-dione] | ≤ 39.8
13 | C=CCNCCN1C(=O)N2[C@H](c3cccc(O)c3)c3[nH]c4ccc(OC(F)F)cc4c3C[C@@]2(C)C1=O (racemic) [Example 274, (3aSR,10RS)-2-(2-Allylamino-ethyl)-6-(1,1-difluoro-methoxy)-10-(3-hydroxy-phenyl)-3a-methyl-3a,4,9,10-tetrahydro-2,9,10a-triaza-cyclopenta[b]fluorene-1,3-dione] | ≤ 39.8
14 | CCN(C)CCN1C(=O)N2[C@H](c3cccc(O)c3)c3[nH]c4ccc(OC(F)F)cc4c3C[C@@]2(C)C1=O (racemic) [Example 275, (3aSR,10RS)-6-(1,1-Difluoro-methoxy)-2-[2-(ethyl-methyl-amino)-ethyl]-10-(3-hydroxy-phenyl)-3a-methyl-3a,4,9,10-tetrahydro-2,9,10a-triaza-cyclopenta[b]fluorene-1,3-dione] | ≤ 39.8
15 | CCN(CC)CCN1C(=O)N2[C@H](c3cccc(O)c3)c3[nH]c4ccc(OC(F)F)cc4c3C[C@@]2(C)C1=O (racemic) [Example 276, (3aSR,10RS)-2-(2-Diethylamino-ethyl)-6-(1,1-difluoro-methoxy)-10-(3-hydroxy-phenyl)-3a-methyl-3a,4,9,10-tetrahydro-2,9,10a-triaza-cyclopenta[b]fluorene-1,3-dione] | ≤ 39.8
16 | CCN(CCO)CCN1C(=O)N2[C@H](c3cccc(O)c3)c3[nH]c4ccc(OC(F)F)cc4c3C[C@@]2(C)C1=O (racemic) [Example 277, (3aSR,10RS)-6-(1,1-Difluoro-methoxy)-2-{2-[ethyl-(2-hydroxy-ethyl)-amino]-ethyl}-10-(3-hydroxy-phenyl)-3a-methyl-3a,4,9,10-tetrahydro-2,9,10a-triaza-cyclopenta[b]fluorene-1,3-dione] | 39.8 to 251
17 | CC(C)N(C)CCN1C(=O)N2[C@H](c3cccc(O)c3)c3[nH]c4ccc(OC(F)F)cc4c3C[C@@]2(C)C1=O (racemic) [Example 278, (3aSR,10RS)-6-(1,1-Difluoro-methoxy)-10-(3-hydroxy-phenyl)-2-[2-(isopropyl-methyl-amino)-ethyl]-3a-methyl-3a,4,9,10-tetrahydro-2,9,10a-triaza-cyclopenta[b]fluorene-1,3-dione] | ≤ 39.8
18 | C[C@@]12Cc3c([nH]c4ccc(OC(F)F)cc34)[C@@H](c3cccc(O)c3)N1C(=O)N(CCN1CCCC1)C2=O (racemic) [Example 279, (3aSR,10RS)-6-(1,1-Difluoro-methoxy)-10-(3-hydroxy-phenyl)-3a-methyl-2-(2-pyrrolidin-1-yl-ethyl)-3a,4,9,10-tetrahydro-2,9,10a-triaza-cyclopenta[b]fluorene-1,3-dione] | ≤ 39.8
19 | C[C@@]12Cc3c([nH]c4ccc(OC(F)F)cc34)[C@@H](c3cccc(O)c3)N1C(=O)N(CCN1CCCCC1)C2=O (racemic) [Example 280, (3aSR,10RS)-6-(1,1-Difluoro-methoxy)-10-(3-hydroxy-phenyl)-3a-methyl-2-(2-piperidin-1-yl-ethyl)-3a,4,9,10-tetrahydro-2,9,10a-triaza-cyclopenta[b]fluorene-1,3-dione] | 39.8 to 251
20 | C[C@@]12Cc3c([nH]c4ccc(OC(F)F)cc34)[C@@H](c3cccc(O)c3)N1C(=O)N(CCN1CC=CCC1)C2=O (racemic) [Example 281, (3aSR,10RS)-6-(1,1-Difluoro-methoxy)-2-[2-(3,6-dihydro-2H-pyridin-1-yl)-ethyl]-10-(3-hydroxy-phenyl)-3a-methyl-3a,4,9,10-tetrahydro-2,9,10a-triaza-cyclopenta[b]fluorene-1,3-dione] | 39.8 to 251
21 | C[C@@]12Cc3c([nH]c4ccc(OC(F)F)cc34)[C@@H](c3cccc(O)c3)N1C(=O)N(CCN1CCCCCC1)C2=O (racemic) [Example 282, (3aSR,10RS)-2-(2-Azepan-1-yl-ethyl)-6-(1,1-difluoro-methoxy)-10-(3-hydroxy-phenyl)-3a-methyl-3a,4,9,10-tetrahydro-2,9,10a-triaza-cyclopenta[b]fluorene-1,3-dione] | 39.8 to 251
22 | C[C@@]12Cc3c([nH]c4ccc(OC(F)F)cc34)[C@@H](c3cccc(O)c3)N1C(=O)N(CCN)C2=O (racemic) [Example 283, (3aSR,10RS)-2-(2-Amino-ethyl)-6-(1,1-difluoro-methoxy)-10-(3-hydroxy-phenyl)-3a-methyl-3a4,9,10-tetrahydro-2,9,10a-triaza-cyclopenta[b]fluorene-1,3-dione] | 39.8 to 251
23 | CCNCCN1C(=O)N2[C@H](c3cccc(O)c3)c3[nH]c4ccc(OC(F)F)cc4c3C[C@@]2(C)C1=O (racemic) [Example 284, (3aSR,10RS)-6-(1,1-Difluoro-methoxy)-2-(2-ethylamino-ethyl)-10-(3-hydroxy-phenyl)-3a-methyl-3a,4,9,10-tetrahydro-2,9,10a-triaza-cyclopenta[b]fluorene-1,3-dione] | ≤ 39.8
